The values that follow come from patent US4855321A, “Antihypercholesterolemic compounds” (Merck & Co., Inc., priority 1988, dated 1989).

The assay deals with HMG-CoA reductase. Description: HMG-CoA Reductase Inhibition Assay (in vitro, [14C]HMG-CoA, relative to compactin). Format: biochemical, rat (male Holtzman Sprague-Dawley). The following applies: compactin assigned 100; IC50 of test compound compared with that of compactin determined simultaneously; pH 7.2, 40 min, 37° C.; lactone converted in situ to sodium salt of dihydroxy acid. As for the experimental part: The intrinsic HMG-CoA reductase inhibition activity of the claimed compounds is measured in the in vitro protocol published in J. Med. Chem., 28, p. 347-358 (1985) and described below:
Male Holtzman Sprague-Dawley rats (225-250 g) were kept on reversed lighting and fed Purina rat chow containing 3% cholestyramine for 7 days preceding their sacrifice by CO2 asphyxiation. Livers were removed 6 hours into the dark cycle and used immediately to prepare microsomes. […]
Test compounds or compactin (after first being converted to the sodium salt of their dihydroxy acid form in situ by addition of 1N NaOH (1 equivalent) were added to the assay system in 10-μl volumes at multiconcentration levels. After a 40-minute incubation at 37° C. to ensure the complete lactionization of mevalonic acid to mevalonolactone, 0.2 ml of the mixture was added to an 0.5×5.0 cm column containing 100-200 mesh BioRex 5, chloride form (Bio-Rad), wetted with distilled water, as described by Alberts et al., [J. Proc. Natl. Acad. Sci. U.S.A., 1980, 77, 3957]. The unreacted [^14 C]HMG-CoA was absorbed on the resin and the [^14 C] mevalonolactone was eluted with distilled water (2×1 ml) directly into 7-ml scintillation vials. Five milliliters of Aquasol-2 (New England Nuclear) was added to each vial, and radioactivity was measured in a Packard Tri Carb Prias scintillation counter. […]

Take `Cc1cc(C)c(/C=C/[C@H]2C[C@H](O)CC(=O)O2)c(-c2ccc(F)c(CO)c2)c1` (relative stereo) [trans-(E)-6-[2-[4'-fluoro-3'-(hydroxymethyl)-3,5-dimethyl[1,1'-biphenyl]-2-yl]ethenyl]-3,4,5,6-tetrahydro-4-hydroxy-2H-pyran-2-one]: the “relative potency (intrinsic HMG-CoA reductase inhibitory activity) when compared to compactin at 100” value came to 26.5.
